Patent publication US11618747B2, “LXR modulators with bicyclic core moiety” (OrsoBio, Inc., priority 2018, dated 2023)
Read-outs that look alike come from different tables or passages of the source.

Assays:
[1] = human liver microsomal assay; cited from earlier work
[2] = Pharmacokinetics in mice after single oral dosing (blood/plasma and liver exposure); type: in vivo, mice (C57/bl6/J)
Protocol: The pharmacokinetics of the compounds was assessed in mice after single dosing and oral administrations. Blood/plasma and liver exposure was measured via LC-MS.
The study design was as follows:
Animals: C57/bl6/J (Janvier) males
Diet: standard rodent chow
Animal handling: animals were withdrawn from food at least 12 h before administration
Design: single dose oral administration, n=3 animals per group
Sacrifice: at stated time point (4, 12 or 24 h) after administration
Bioanalytics: LC-MS of liver and blood/plasma samples

[3] = rat liver microsomal assay; cited from earlier work
[4] = 20 mg/kg single oral dose, time point 4 h

blood/plasma exposure (below LLOQ, LLOQ given) [2, 4]: (14.4 ng/mL)
liver exposure (below LLOQ, LLOQ given) [2, 4]: (9.6 ng/mL)
oral bioavailability (in words) ([2]; oral administration): not orally bioavailable
Compound: Cc1cc(C)c(S(=O)(=O)N(Cc2ccc(-c3cccc(S(C)(=O)=O)c3)cc2)Cc2ccc(C(F)(F)F)o2)c(C)c1 [GSK2033, reference compound]
clearance (Clint) [1]: > 1.0 mL/min/mg protein
clearance (Clint) [3]: > 1.0 mL/min/mg protein
